Results published in US20230159510A1, “NOVEL PRMT5 INHIBITORS” (AMGEN INC., priority 2020, published 2023).

How the values were obtained:
PRMT5/MEP50 = PRMT5/MEP50 (Homo sapiens, UniProt O14744); assay: MTase-Glo methyl transferase assay, Method A (Histone H4 peptide, 1 µM MTA, 24 h pre-incubation); format: biochemical; design: made in house; details: read-out: PRMT5 MTase Glo Ki (nM, Meth. A)
Summary of the method: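 Luminescent SAH detection (MTase-Glo) after a 2 h room-temperature methylation of 1 µM biotinylated H4 (1-21) peptide by 10 nM PRMT5/MEP50 with 5 µM SAM, in 50 mM Tris pH 8.0.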

HCT116 WT cells = assay: HCT116 proliferation assay, WT cells (CellTiter-Glo, 6 days); format: cell-based; details: Homo sapiens, HCT-116, 144 h, read-out: Prolif_HCT116-WT IC50
Summary of the method: (§1)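 Compound titrations (top dose 1 or 10 µM, 1:3 dilution, 8 or 9 concentrations) and a DMSO control were applied to cells cultured overnight beforehand in RPMI 1640 with 10% FBS at 37° C, 5% CO2; viability was scored from luminescence.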

HCT116 MTAP null cells = assay: HCT116 proliferation assay, MTAP null cells (CellTiter-Glo, 6 days); format: cell-based; details: HCT116-MTAP null, 144 h, read-out: Protif_ HCT116-MTAP null IC50
Summary of the method: as §1

Chain of PRMT5/MEP50 (O14744 whole entry): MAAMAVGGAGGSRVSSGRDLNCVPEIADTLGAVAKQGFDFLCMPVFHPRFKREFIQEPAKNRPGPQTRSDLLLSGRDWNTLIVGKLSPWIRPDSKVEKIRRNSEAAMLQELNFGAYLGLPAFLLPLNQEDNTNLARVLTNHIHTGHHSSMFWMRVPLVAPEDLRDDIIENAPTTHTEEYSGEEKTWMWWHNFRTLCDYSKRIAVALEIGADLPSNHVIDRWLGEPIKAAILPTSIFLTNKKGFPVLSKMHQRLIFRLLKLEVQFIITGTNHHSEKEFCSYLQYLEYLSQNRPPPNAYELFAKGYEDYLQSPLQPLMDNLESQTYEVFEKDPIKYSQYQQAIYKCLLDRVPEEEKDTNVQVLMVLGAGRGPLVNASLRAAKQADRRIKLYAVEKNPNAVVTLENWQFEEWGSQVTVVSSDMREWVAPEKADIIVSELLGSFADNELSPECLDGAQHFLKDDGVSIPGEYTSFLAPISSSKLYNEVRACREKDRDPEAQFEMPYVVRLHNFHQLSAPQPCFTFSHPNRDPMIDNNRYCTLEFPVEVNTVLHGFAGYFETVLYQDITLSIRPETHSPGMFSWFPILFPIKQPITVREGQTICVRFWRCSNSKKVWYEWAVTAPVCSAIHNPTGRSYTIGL
Chain of PRMT5/MEP50 (Q9BQA1 whole entry partner): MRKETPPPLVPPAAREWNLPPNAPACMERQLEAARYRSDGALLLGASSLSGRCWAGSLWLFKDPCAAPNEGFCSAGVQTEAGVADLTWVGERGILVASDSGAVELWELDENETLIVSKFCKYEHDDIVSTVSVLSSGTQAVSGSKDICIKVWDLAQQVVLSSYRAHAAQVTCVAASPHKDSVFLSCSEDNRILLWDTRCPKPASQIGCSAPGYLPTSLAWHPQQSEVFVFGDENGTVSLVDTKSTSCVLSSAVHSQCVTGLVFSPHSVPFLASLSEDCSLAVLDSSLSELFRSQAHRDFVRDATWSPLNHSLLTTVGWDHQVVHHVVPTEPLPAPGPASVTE

SMILES: Cc1cc2cc(C(=O)N(Cc3ccc(C#N)cn3)CC3CC3)c(F)cc2nc1N [Example 307, 2-amino-N-((5-cyano-2-pyridinyl)methyl)-N-(cyclopropylmethyl)-7-fluoro-3-methyl-6-quinolinecarboxamide]
- Ki (PRMT5/MEP50): 1.88 nM
- IC50 (HCT116 WT cells): 7660 nM
- IC50 (HCT116 MTAP null cells): 349 nM

SMILES: C[C@H](c1ncccn1)N(Cc1ccc(C2=CCOCC2)nn1)C(=O)c1ccc2nc(N)c(Cl)cc2c1 [Example 334, 2-amino-3-chloro-N-((6-(3,6-dihydro-2H-pyran-4-yl)-3-pyridazinyl)methyl)-N-((1R)-1-(2-pyrimidinyl)ethyl)-6-quinolinecarboxamide]
- Ki (PRMT5/MEP50): 0.34 nM
- IC50 (HCT116 WT cells): > 10000 nM
- IC50 (HCT116 MTAP null cells): 434 nM

SMILES: COC(=O)c1ccc(CN(C(=O)c2ccc3nc(N)c(C)cc3c2)[C@H](C)c2ncccc2F)nc1 [Example 403, methyl 6-((((2-amino-3-methyl-6-quinolinyl)carbonyl)((1R)-1-(3-fluoro-2-pyridinyl)ethyl)amino)methyl)-3-pyridinecarboxylate]
- Ki (PRMT5/MEP50): 0.55 nM
- IC50 (HCT116 WT cells): 8880 nM
- IC50 (HCT116 MTAP null cells): 263 nM

SMILES: Cc1cc2cc(C(=O)N(Cc3ccc(Br)cn3)[C@H](C)c3ncccc3F)ccc2nc1N [Example 400, 2-amino-N-((5-bromo-2-pyridinyl)methyl)-N-((1R)-1-(3-fluoro-2-pyridinyl)ethyl)-3-methyl-6-quinolinecarboxamide]
- Ki (PRMT5/MEP50): 0.05 nM
- IC50 (HCT116 WT cells): 960 nM
- IC50 (HCT116 MTAP null cells): 41 nM

SMILES: Cc1cc2cc(C(=O)N(Cc3ccc(C(F)F)cn3)[C@H](C)c3cnn(C)n3)ccc2nc1N (single isomer, unassigned) [Example 532]
- Ki (PRMT5/MEP50): 0.02 nM
- IC50 (HCT116 WT cells): 894 nM
- IC50 (HCT116 MTAP null cells): 45 nM

SMILES: C[C@H](c1ncccc1F)N(Cc1ccc(Br)nn1)C(=O)c1cnc2nc(N)c(Br)cc2c1 [Example 424, 7-amino-6-bromo-N-((6-bromo-3-pyridazinyl)methyl)-N-((1R)-1-(3-fluoro-2-pyridinyl)ethyl)-1,8-naphthyridine-3-carboxamide]
- Ki (PRMT5/MEP50): 0.61 nM
- IC50 (HCT116 WT cells): 9080 nM
- IC50 (HCT116 MTAP null cells): 319 nM

SMILES: Cc1cc2cc(C(=O)N(Cc3ccc(C4=CCN(C(=O)OC(C)(C)C)CC4)cn3)[C@H](C)c3ncccn3)ccc2nc1N [Example 547, tert-butyl (R)-6-((2-amino-3-methyl-N-(1-(pyrimidin-2-yl)ethyl)quinoline-6-carboxamido)methyl)-3’,6′-dihydro-[3,4′-bipyridine]-1′(2’H)-carboxylate]
- Ki (PRMT5/MEP50): 0.02 nM
- IC50 (HCT116 WT cells): 443 nM
- IC50 (HCT116 MTAP null cells): 19 nM

SMILES: Cc1cc2cc(C(=O)N(Cc3ccc(C(F)(F)F)cn3)[C@@H]3CCCNC3=O)ccc2nc1N (single isomer, unassigned) [Example 461]
- Ki (PRMT5/MEP50): 1.23 nM
- IC50 (HCT116 WT cells): 7780 nM
- IC50 (HCT116 MTAP null cells): 322 nM

SMILES: Cc1cc2cc(C(=O)N(Cc3ccc(C(F)(F)F)cn3)Cc3c(F)cccc3F)ccc2nc1N [Example 344, 2-amino-N-(2,6-difluorobenzyl)-3-methyl-N-((5-(trifluoromethyl)-2-pyridinyl)methyl)-6-quinolinecarboxamide]
- Ki (PRMT5/MEP50): 0.1 nM
- IC50 (HCT116 WT cells): 1800 nM
- IC50 (HCT116 MTAP null cells): 73 nM

SMILES: Cc1cc2cc(C(=O)N(Cc3ncc(C(F)(F)F)cc3Cl)[C@H](C)c3ncccc3F)ccc2nc1N [Example 396, 2-amino-N-((3-chloro-5-(trifluoromethyl)-2-pyridinyl)methyl)-N-((1R)-1-(3-fluoro-2-pyridinyl)ethyl)-3-methyl-6-quinolinecarboxamide]
- Ki (PRMT5/MEP50): 0.27 nM
- IC50 (HCT116 WT cells): > 10000 nM
- IC50 (HCT116 MTAP null cells): 793 nM

SMILES: Cc1cc2cc(C(=O)N(Cc3ccc(C#N)cn3)[C@@H](c3ncccn3)C3CC3)c(F)cc2nc1N [Example 421, 2-amino-N-((5-cyano-2-pyridinyl)methyl)-N-((R)-cyclopropyl(2-pyrimidinyl)methyl)-7-fluoro-3-methyl-6-quinolinecarboxamide]
- Ki (PRMT5/MEP50): 0.54 nM
- IC50 (HCT116 WT cells): 1130 nM
- IC50 (HCT116 MTAP null cells): 56 nM

SMILES: Cc1cc2cc(C(=O)N(Cc3ccc(C(F)(F)F)cn3)[C@@H]3CCCc4ccncc43)ccc2nc1N [Example 323, 2-amino-3-methyl-N-((8R)-5,6,7,8-tetrahydro-8-isoquinolinyl)-N-((5-(trifluoromethyl)-2-pyridinyl)methyl)-6-quinolinecarboxamide]
- Ki (PRMT5/MEP50): 0.36 nM
- IC50 (HCT116 WT cells): 5010 nM
- IC50 (HCT116 MTAP null cells): 159 nM

SMILES: Cc1cc2cc(C(=O)N(Cc3ccc(C(F)(F)F)cn3)[C@H](C)C3CC3)ccc2nc1N [Example 309, 2-amino-N-((1R)-1-cyclopropylethyl)-3-methyl-N-((5-(trifluoromethyl)-2-pyridinyl)methyl)-6-quinolinecarboxamide]
- Ki (PRMT5/MEP50): 2.35 nM
- IC50 (HCT116 WT cells): 7440 nM
- IC50 (HCT116 MTAP null cells): 644 nM

SMILES: Cc1cc2cc(C(=O)N(Cc3ncc(Br)cc3C)[C@H](C)c3ncccn3)ccc2nc1N (single isomer, unassigned) [Example 474]
- Ki (PRMT5/MEP50): 0.04 nM
- IC50 (HCT116 WT cells): 3270 nM
- IC50 (HCT116 MTAP null cells): 88 nM

SMILES: CC[C@H](c1ncccn1)N(Cc1ccc(C(F)F)cn1)C(=O)c1ccc2nc(N)c(Br)cc2c1 (single isomer, unassigned) [Example 501]
- Ki (PRMT5/MEP50): 0.02 nM
- IC50 (HCT116 WT cells): 5920 nM
- IC50 (HCT116 MTAP null cells): 107 nM

SMILES: Cc1cc2cc(C(=O)N(Cc3ccc(C(F)(F)F)cn3)Cc3cccc4[nH]ncc34)ccc2nc1N [Example 371, 2-amino-N-(1H-indazol-4-ylmethyl)-3-methyl-N-((5-(trifluoromethyl)-2-pyridinyl)methyl)-6-quinolinecarboxamide]
- Ki (PRMT5/MEP50): 0.01 nM
- IC50 (HCT116 WT cells): 1390 nM
- IC50 (HCT116 MTAP null cells): 69 nM

SMILES: Cc1nc([C@@H](C)N(Cc2ccc(C(F)F)cn2)C(=O)c2ccc3nc(N)c(C)cc3c2)no1 (single isomer, unassigned) [Example 534]
- Ki (PRMT5/MEP50): 0.33 nM
- IC50 (HCT116 WT cells): 4020 nM
- IC50 (HCT116 MTAP null cells): 154 nM

SMILES: Cc1cc2cc(C(=O)N(Cc3ccc(C(F)(F)F)cn3)Cc3ncc(Cl)cc3F)ccc2nc1N [Example 304, 2-amino-N-((5-chloro-3-fluoro-2-pyridinyl)methyl)-3-methyl-N-((5-(trifluoromethyl)-2-pyridinyl)methyl)-6-quinolinecarboxamide]
- Ki (PRMT5/MEP50): 0.11 nM
- IC50 (HCT116 WT cells): 4100 nM
- IC50 (HCT116 MTAP null cells): 182 nM

SMILES: C[C@H](c1ncccn1)N(Cc1ccc(C(F)(F)F)cn1)C(=O)c1cc2cc(Br)c(N)nc2cn1 [Example 419, 2-amino-3-bromo-N-((1R)-1-(2-pyrimidinyl)ethyl)-N-((5-(trifluoromethyl)-2-pyridinyl)methyl)-1,7-naphthyridine-6-carboxamide]
- Ki (PRMT5/MEP50): 0.16 nM
- IC50 (HCT116 WT cells): > 10000 nM
- IC50 (HCT116 MTAP null cells): 271 nM

SMILES: Cc1cc2cc(C(=O)N(Cc3ccc(C4=CCOCC4)nn3)[C@H](C)c3ncccn3)ccc2nc1N [Example 333, 2-amino-N-((6-(3,6-dihydro-2H-pyran-4-yl)-3-pyridazinyl)methyl)-3-methyl-N-((1R)-1-(2-pyrimidinyl)ethyl)-6-quinolinecarboxamide]
- Ki (PRMT5/MEP50): 0.002 nM
- IC50 (HCT116 WT cells): 720 nM
- IC50 (HCT116 MTAP null cells): 27 nM

SMILES: Cc1cc2cc(C(=O)N(Cc3ccc(C(F)(F)F)cn3)CC3CC3)ccc2nc1N [Example 325, 2-amino-N-(cyclopropylmethyl)-3-methyl-N-((5-(trifluoromethyl)-2-pyridinyl)methyl)-6-quinolinecarboxamide]
- Ki (PRMT5/MEP50): 2.76 nM
- IC50 (HCT116 WT cells): 6180 nM
- IC50 (HCT116 MTAP null cells): 679 nM

SMILES: C#Cc1cc2cc(C(=O)N(Cc3ccc(C(F)(F)F)cn3)[C@H](C)c3ncccc3F)cnc2nc1N [Example 543, (R)-7-amino-6-ethynyl-N-(1-(3-fluoropyridin-2-yl)ethyl)-N-((5-(trifluoromethyl)pyridin-2-yl)methyl)-1,8-naphthyridine-3-carboxamide]
- Ki (PRMT5/MEP50): 0.59 nM
- IC50 (HCT116 WT cells): > 10000 nM
- IC50 (HCT116 MTAP null cells): 568 nM

SMILES: COC[C@@H](c1ccccn1)N(Cc1ccc(C(F)(F)F)cn1)C(=O)c1ccc2nc(N)c(C)cc2c1 (single isomer, unassigned) [Example 529]
- Ki (PRMT5/MEP50): 1.69 nM
- IC50 (HCT116 WT cells): 4240 nM
- IC50 (HCT116 MTAP null cells): 258 nM

SMILES: CC[C@H](c1ncccn1)N(Cc1ccc(C(F)(F)F)nn1)C(=O)c1ccc2nc(N)c(C)cc2c1 (single isomer, unassigned) [Example 495]
- Ki (PRMT5/MEP50): 0.06 nM
- IC50 (HCT116 WT cells): 3170 nM
- IC50 (HCT116 MTAP null cells): 86 nM

SMILES: Cc1cc2cc(C(=O)N(Cc3ccc(C(F)(F)F)cn3)[C@@H]3CCCc4nccnc43)ccc2nc1N (single isomer, unassigned) [Example 521]
- Ki (PRMT5/MEP50): 0.01 nM
- IC50 (HCT116 WT cells): 78 nM
- IC50 (HCT116 MTAP null cells): 12 nM

SMILES: Cc1cc2cc(C(=O)N(Cc3cnc4ccccc4c3)[C@H](C)c3ncccn3)ccc2nc1N (single isomer, unassigned) [Example 447]
- Ki (PRMT5/MEP50): 5.51 nM
- IC50 (HCT116 WT cells): > 10000 nM
- IC50 (HCT116 MTAP null cells): 673 nM

SMILES: Cc1cc2cc(C(=O)N(Cc3ccc(C(F)(F)F)nc3C)[C@H](C)c3ncccn3)ccc2nc1N [Example 509, 2-amino-3-methyl-N-((2-methyl-6-(trifluoromethyl)-3-pyridinyl)methyl)-N-((1R)-1-(2-pyrimidinyl)ethyl)-6-quinolinecarboxamide]
- Ki (PRMT5/MEP50): 0.13 nM
- IC50 (HCT116 WT cells): 4120 nM
- IC50 (HCT116 MTAP null cells): 137 nM

SMILES: Cc1cc2cc(C(=O)N(Cc3ccc(C#N)cn3)[C@@H]3CCCn4ncnc43)ccc2nc1N (single isomer, unassigned) [Example 523]
- Ki (PRMT5/MEP50): 0.35 nM
- IC50 (HCT116 WT cells): 6380 nM
- IC50 (HCT116 MTAP null cells): 334 nM

SMILES: Cc1cc([C@@H](C)N(Cc2ccc(C(F)(F)F)cn2)C(=O)c2ccc3nc(N)c(C)cc3c2)no1 [Example 392, 2-amino-3-methyl-N-((1R)-1-(5-methyl-1,2-oxazol-3-yl)ethyl)-N-((5-(trifluoromethyl)-2-pyridinyl)methyl)-6-quinolinecarboxamide]
- Ki (PRMT5/MEP50): 0.5 nM
- IC50 (HCT116 WT cells): 6860 nM
- IC50 (HCT116 MTAP null cells): 193 nM

SMILES: Cc1cc2cc(C(=O)N(Cc3ccc(Br)cn3)[C@@H]3CCCN(C)C3=O)ccc2nc1N (single isomer, unassigned) [Example 448]
- Ki (PRMT5/MEP50): 0.32 nM
- IC50 (HCT116 WT cells): 5230 nM
- IC50 (HCT116 MTAP null cells): 238 nM
